According to patent US20170190744A1 (Vicuron Pharmaceuticals, Inc., priority 2015, published 2017):
Converted amounts (≈) assume the structure as drawn. “And” between values parts separate entries of the source, which are not always exact repeats. Equal values may be shown once. Read-outs that look alike come from different tables or passages of the source. One block for each compound: values may come before it.

Assays:
[1] = test system: Candida albicans SKF 2270; experiment: MIC by broth microdilution (NCCLS), with or without 30% bovine serum (Example 19); format: cell-based; conditions: SKF2270
Experimental: MICs were determined by the broth microdilution methodology following the standard NCCLS procedure (NCCLS Document M7-A6, Vol. 23, No. 2, “Methods for dilution antimicrobial susceptibility tests for bacteria that grow aerobically.” Approved Guideline. January 2003, which can be herein incorporated by reference in its entirety), with or without 30% adult bovine serum (BS) (PAA Laboratories GmBH, Haidmannweg Pasching Austria), using bacterial innocula at approximately 5×10^5 CFU/ml. The media employed included cation-adjusted Müller Hinton broth (Difco Laboratories, Detroit, Mich.) that was used that was adjusted with CaCl2 and MgCl2 to a final concentration of 20 mg/L and 10 mg/L, respectively. Tests were read following 20-24 hours of incubation at 35° C.

gram-negative bacteria [2] = experiment: as above; format: cell-based
Experimental: (§1) The compounds were prepared according to the examples above and the methods described in U.S. Patent Application Publication No. 2004/0142883. Individual dalbavancin compounds were purified by HPLC. […] Before dissolution, each sample was analyzed by HPLC and quantified. […] Louis, Mo.), Gentamycin (GE) (Sigma Chemical Co., St. Louis, Mo.), Penicillin G (Pen.G) (Sigma Chemical Co., St. Louis, Mo.), and Amphotericin B (Amph.B) (Sigma Chemical Co., St. Louis, Mo.). The microorganisms used were reference strains obtained from the American Type Culture Collection (ATCC) (Rockville, Md.), SmithKline and French Laboratories (SKF), and the Upjohn Company (UC) (Kalamazoo, Mich.).

gram positive bacteria = experiment: as above; format: cell-based
Experimental: as §1

S. pneumoniae = experiment: MIC of study organisms (NCCLS microdilution); format: cell-based; conditions: S. pneumoniae strain 10813
Experimental: (§2) MICs were determined in MHB by standard NCCLS microdilution techniques. […] All MICs were performed at least in duplicate.

[3] = target: N,N′-diacetyl-Lys-D-Ala-D-Ala; experiment: ITC, 10 °C, [HSA] 0 µM
[4] = target: N,N′-diacetyl-Lys-D-Ala-D-Ala; experiment: ITC, 25 °C, 513 µM HSA present
[5] = target: N,N′-diacetyl-Lys-D-Ala-D-Ala; experiment: ITC, 25 °C, [HSA] 0 µM
S. aureus = experiment: MIC of study organisms (NCCLS microdilution); format: cell-based; conditions: Staphylococcus aureus
Experimental: as §2

[6] = In vivo biological activity of IsoB0
Candida albicans SKF2270 = experiment: MIC by broth microdilution (NCCLS), IsoB0 and reference compounds; format: cell-based
gram-negative bacteria [7] = experiment: as above; format: cell-based
Experimental: (§3) MICs were determined by the broth microdilution methodology following the standard NCCLS procedure, with or without 30% bovine serum, using bacterial inocula of approximately 5×10^5 CFU/mL. Tests were read after 20-24 h incubation at 35° C.

gram-positive bacteria = experiment: as above; format: cell-based
Experimental: Müller Hinton broth (Difco Laboratories, Detroit, Mich., USA) adjusted with CaCl2 and MgCl2 to a final concentrations of 20 mg/L and 10 mg/L respectively.
Adult bovine serum (BS) (batch A05123-159 PAA Laboratories GmBH Haidmannweg Pasching Austria).
The microorganisms used are reference standard strains from the American Type Culture Collection (ATCC, Rockville, USA), Smith Kline and French Laboratories (SKF) and the Upjohn Company (UC, Kalamazoo, Mich., USA).
as §3

[8] = target: N,N′-diacetyl-Lys-D-Ala-D-Ala; experiment: ITC, 37 °C, [HSA] 0 µM
[9] = target: N,N′-diacetyl-Lys-D-Ala-D-Ala; experiment: ITC, 25 °C, apparent, 601 µM HSA present
[10] = target: N,N′-diacetyl-Lys-D-Ala-D-Ala; experiment: ITC, 25 °C, apparent, 288 µM HSA present
[11] = target: N,N′-diacetyl-Lys-D-Ala-D-Ala; experiment: ITC, 25 °C, apparent, 430 µM HSA present
[12] = target: N,N′-diacetyl-Lys-D-Ala-D-Ala; experiment: ITC, 25 °C, apparent, 104 µM HSA present
human serum proteins = experiment: cell-based or functional assay
[13] = target: N,N′-diacetyl-Lys-D-Ala-D-Ala; experiment: ITC, 25 °C, free dalbavancin
[14] = target: N,N′-diacetyl-Lys-D-Ala-D-Ala; experiment: ITC, 37 °C, apparent, 482 µM HSA present
[15] = set-up: species or system Sprague-Dawley rats; conditions: rat, in vivo, iv, 20 mg/kg
Experimental: Mass balance studies were conducted to determine the excretion pattern of dalbavancin following a single intravenous (IV) infusion of dalbavancin in male rats. […] Water and methanol cage washes were also collected.

[16] = Pseudomonas aeruginosas ATCC 10145
[17] = E. faecalis ATCC29212 ref. strain
[18] = Enterococcus faecalis, ATCC7080
[19] = S. aureus ATCC29213 ref. strain
[20] = Staphylococcus aureus Smith ATCC19636

Compound: Penicillin
MIC (S. pneumoniae): 0.008 µg/mL

Compound: Vancomycin hydrochloride (peptide)
Ka [3]: 690000 M⁻¹
N [3]: 1.1
Ka [4]: 290000 M⁻¹
N [4]: 1.05
Ka [5]: 340000 M⁻¹ and 360000 M⁻¹
N [5]: 0.91 and 0.97

Compound: COc1cccc(OC)c1C(=O)N[C@@H]1C(=O)N2[C@@H]1SC(C)(C)[C@@H]2C(=O)O [Methicillin]
MIC (S. aureus; MRSA, S. aureus strain MRSA): > 8 µg/mL
MIC (S. aureus; S. aureus strain 25923): 0.12 µg/mL
MIC (S. aureus; S. aureus strain 31005): 0.12 µg/mL
MIC (S. aureus; S. aureus strain 33591): > 8 µg/mL
MIC (S. aureus; S. aureus strain 307109): > 8 µg/mL
MIC (S. aureus; S. aureus strain Smith): 0.12 µg/mL

Compound: CNC1C(=O)NC2Cc3ccc(cc3)Oc3cc4cc(c3OC3OC(C(=O)O)C(O)C(O)C3NC(=O)CCCCCCCCC(C)C)Oc3ccc(cc3Cl)C(O)C3NC(=O)C(NC(=O)C4NC(=O)C(NC2=O)c2cc(cc(O)c2Cl)Oc2cc1ccc2O)c1ccc(O)c(c1)-c1c(OC2OC(CO)C(O)C(O)C2O)cc(O)cc1C(C(=O)NCCCN(C)C)NC3=O (stereo not shown) [IsoB0]
in vivo biological activity [6]: comparable to that of dalbavancin B0
MIC (Candida albicans SKF2270): >64 µg/mL
MIC (gram-negative bacteria [7]; E. coli ATCC25922 ref. strain): 64 µg/mL (≈ 35.2 µM)
MIC (gram-negative bacteria [7]; Escherichia coli SKF 12140): 64 µg/mL (≈ 35.2 µM)
MIC (gram-negative bacteria [7]; Proteus vulgaris, ATCC881): >64 µg/mL
MIC (gram-negative bacteria [7]; [16]): >64 µg/mL
MIC (gram-positive bacteria; Bacillus subtilis ATCC6633): ≦0.06 mg/L
MIC (gram-positive bacteria; [17]): 0.25 µg/mL (≈ 0.138 µM)
MIC (gram-positive bacteria; [18]): 0.25 µg/mL (≈ 0.138 µM)
MIC (gram-positive bacteria; [19]): 0.25 µg/mL (≈ 0.138 µM)
MIC (gram-positive bacteria; S. aureus Smith + 30% BS): 16 µg/mL
MIC (gram-positive bacteria; S. epidermidis ATCC12228): 0.125 µg/mL (≈ 0.0688 µM)
MIC (gram-positive bacteria; S. pneumoniae Felton UC41): 0.125 µg/mL (≈ 0.0688 µM)
MIC (gram-positive bacteria; [20]): 0.5 µg/mL (≈ 0.275 µM)
MIC (gram-positive bacteria; Streptococcus pyogenes SKF13400): 0.06 µg/mL (≈ 0.033 µM)
activity against a panel of gram-positive bacteria (gram-positive bacteria; compared with dalbavancin): very similar to dalbavancin

Compound: Dalbavancin (peptide)
N [8]: 0.82
N [9]: 0.86
N [10]: 0.9
N [11]: 1.24
N [12]: 1.38
degree of binding estimated from MIC difference (human serum proteins): 96%
Kd [13]: 3 µM
N [14]: 0.179

Compound: CN[C@H]1C(=O)N[C@@H]2Cc3ccc(cc3)Oc3cc4cc(c3O[C@@H]3O[C@H](C(=O)O)[C@@H](O)[C@H](O)[C@H]3NC(=O)CCCCCCCCC(C)C)Oc3ccc(cc3Cl)[C@@H](O)[C@@H]3NC(=O)[C@H](NC(=O)[C@@H]4NC(=O)[C@@H](NC2=O)c2cc(cc(O)c2Cl)Oc2cc1ccc2O)c1ccc(O)c(c1)-c1c(O[C@H]2O[C@H](CO)[C@@H](O)[C@H](O)[C@@H]2O)cc(O)cc1[C@@H](C(=O)NCCCN(C)C)NC3=O [^3H-dalbavancin]
fraction of excreted radioactivity eliminated in feces [15]: ⅓
fraction of excreted radioactivity eliminated in urine [15]: ⅔

Now from value to compound:

MIC ([1]; Candida albicans SKF 2270, read-out: MIC): 32 µg/mL (≈ 17.5 µM)
MIC (gram-negative bacteria [2]; ATCC881, Proteus vulgaris ATCC 881, read-out: MIC): 32 µg/mL (≈ 17.5 µM)
MIC (gram-negative bacteria [2]; Escherichia coli SKF 12140, read-out: MIC): 32 µg/mL (≈ 17.5 µM)
MIC (gram-negative bacteria [2]; Escherichia coli, E. coli ATCC25922 ref. strain, read-out: MIC): 32 µg/mL (≈ 17.5 µM)
MIC (gram-negative bacteria [2]; Pseudomonas aeruginosas ATCC 10145, read-out: MIC): 16 µg/mL (≈ 8.74 µM)
MIC (gram positive bacteria; ATCC6633, Bacillus subtilis ATCC 6633, read-out: MIC): ≤ 0.03 µg/mL
MIC (gram positive bacteria; ATCC7080, Enterococcus faecalis ATCC 7080, read-out: MIC): 0.06 µg/mL (≈ 0.0328 µM)
MIC (gram positive bacteria; ATCC19636, Staphylococcus aureus Smith ATCC 19636, read-out: MIC): 0.125 µg/mL (≈ 0.0683 µM)
MIC (gram positive bacteria; Enterococcus faecalis, E. faecalis ATCC29212 ref. strain, read-out: MIC): 0.125 µg/mL (≈ 0.0683 µM)
MIC (gram positive bacteria; Staphylococcus aureus, ATCC29213, S. aureus ATCC 29213 ref. strain, read-out: MIC): 0.125 µg/mL (≈ 0.0683 µM)
MIC (gram positive bacteria; Staphylococcus aureus, S. aureus Smith + 30% BS, read-out: MIC): 2 µg/mL
MIC (gram positive bacteria; Staphylococcus epidermidis, ATCC12228, S. epidermidis ATCC 12228, read-out: MIC): ≤ 0.03 µg/mL
MIC (gram positive bacteria; Streptococcus pneumoniae, S. pneumoniae Felton UC41, read-out: MIC): ≤ 0.03 µg/mL
MIC (gram positive bacteria; Streptococcus pyrogenes SKF 13400, read-out: MIC): ≤ 0.03 µg/mL
Compound: CC(C)CCCCCCCCC(=O)N[C@H]1[C@H](Oc2c3cc4cc2Oc2ccc(cc2Cl)[C@@H](O)[C@@H]2NC(=O)[C@H](NC(=O)[C@@H]4NC(=O)[C@H]4NC(=O)[C@@H](Cc5ccc(cc5)O3)NC(=O)[C@H](N(C)C)c3ccc(O)c(c3)Oc3cc(O)c(Cl)c4c3)c3ccc(O)c(c3)-c3c(O[C@H]4O[C@H](CO)[C@@H](O)[C@H](O)[C@@H]4O)cc(O)cc3[C@@H](C(=O)NCCCN(C)C)NC2=O)O[C@H](C(=O)O)[C@@H](O)[C@@H]1O [Composition B2, N^15,N^15-dimethyl dalbavancin B0]

MIC ([1]; Candida albicans): >64 µg/mL
MIC (gram-negative bacteria [2]; E. coli ATCC25922 ref. strain): >64 µg/mL
MIC (gram-negative bacteria [2]; Escherichia coli SKF 12140): >64 µg/mL
MIC (gram-negative bacteria [2]; Proteus vulgaris, ATCC881): >64 µg/mL
MIC (gram-negative bacteria [2]; [16]): >64 µg/mL
MIC (gram positive bacteria; Bacillus subtilis ATCC6633): ≦0.06 mg/L
MIC (gram positive bacteria; [17]): 0.125 µg/mL (≈ 0.0688 µM)
MIC (gram positive bacteria; [18]): 0.125 µg/mL (≈ 0.0688 µM)
MIC (gram positive bacteria; [19]): 0.125 µg/mL (≈ 0.0688 µM)
MIC (gram positive bacteria; S. aureus Smith + 30% BS): 2 µg/mL
MIC (gram positive bacteria; S. epidermidis ATCC12228): ≦0.06 mg/L
MIC (gram positive bacteria; S. pneumoniae Felton UC41): ≦0.06 mg/L
MIC (gram positive bacteria; [20]): 0.25 µg/mL (≈ 0.138 µM)
MIC (gram positive bacteria; Streptococcus pyrogenes SKF 13400): ≦0.06 mg/L
Compound: CNC1C(=O)NC2Cc3ccc(c(Cl)c3)Oc3cc4cc(c3OC3OC(C(=O)O)C(O)C(O)C3NC(=O)CCCCCCCCC(C)C)Oc3ccc(cc3Cl)C(O)C3NC(=O)C(NC(=O)C4NC(=O)C(NC2=O)c2cc(O)cc(c2)Oc2cc1ccc2O)c1ccc(O)c(c1)-c1c(OC2OC(CO)C(O)C(O)C2O)cc(O)cc1C(C(=O)NCCCN(C)C)NC3=O [Composition B0, ristomycin A aglycone, 5,31-dichloro-38-de(methoxycarbonyl)-7-demethyl-19-deoxy-56-O-(2-deoxy-2-((10-methyl-1-oxoundecyl)amino)-beta-D-glucopyranuronosyl)-38-(((3-(dimethylamino)propyl)amino)-carbonyl)-42-O-alpha-D-mannopyranosyl-N^15-methyl-]
